Test results as given in patent US7745450B2, “Pyrazolo[4,3-d]pyrimidines, processes for their preparation and methods for therapy” (Institute of Experimental Botany, priority 2002, dated 2010).

Assays:
[1] = tested on: CEM (human lymphoblastoid leukemia); experiment: In vitro cytotoxic activity, Calcein AM; format: cell-based; conditions: Homo sapiens, 72 h, three days
Protocol: We have been using the following cell lines: HELA (human cervical carcinoma), MCF7 (human breast adenocarcinoma), NIH 3T3 (mouse fibroblasts), HOS (human osteogenic sarcoma), HL 60 (human promyelocytic leukemia), G 361 (human malignant melanoma), K562 (human erythroleukemia), CEM (human lymphoblastoid leukemia). Tested drugs were added to the cell cultures in six different concentration and kept at 37° C. and 5% CO2 for three days. All cell lines were grown in DMEM medium (Gibco BRL) supplemented with 10% (v/v) fetal bovine serum and L-glutamine and maintained at 37° C. in a humidified atmosphere with 5% CO2. 10^4 cells were seeded into each well of 96 well plate, allowed to stabilize for at least 2 h and then tested compounds were added at various concentrations ranging from 200 to 0.2 μM in triplicates. Three days after drug addition Calcein AM solution (Molecular Probes) was added and let to enter the cells for 1 hour. Fluorescence of viable cells was quantified employing Fluoroskan Ascent (Microsystems).

B16 = experiment: In vitro cytotoxic activity, Calcein AM; format: cell-based; conditions: Mus musculus, B16, 72 h, three days
normal human lymphocytes = experiment: Immunosuppressive activity, 3H-thymidine incorporation in concanavalin A activated lymphocytes; format: cell-based; conditions: Lymphocyte, 72 hours, [3H]-TdR, read-out: Human lymphocytes ED50
Protocol: Human heparinized peripheral blood was obtained from healthy volunteers by cubital vein punction. The blood was diluted in PBS (1:3) and mononuclear cells were separated by centrifugation in Ficoll-Hypaque density gradient (Pharmacia, 1.077 g/ml) at 2200 rpm for 30 minutes. Following centrifugation, lymphocytes were washed in PBS and resuspended in cell culture medium (RMPI 1640, 2 mM glutamine, 100 U/ml penicillin, 100 μg/ml streptomycin, 10% fetal calf serum and sodium bicarbonate).
The cells were diluted at target density of 1.100.000 cells/ml were added by pipette (180 μl) into 96/well microtiter plates. Four-fold dilutions of the intended test concentration were added at time zero in 20 μl aliquots to the microtiter plate wells. Usually, test compound was evaluated at six 4-fold dilutions. In routine testing, the highest well concentration was 266.7 μM. All drug concentrations were examined in duplicates. All wells with exception of unstimulated controls were activated with 50 μl of concanavalin A (25 μg/ml). Incubations of cells with test compounds lasted for 72 hours at 37° C., in 5% CO2 atmosphere and 100% humidity. At the end of incubation period, the cells were assayed by using the [^3H]-TdR:
Cell cultures were incubated with 0.5 μCi (20 μl of stock solution […]) per well for 6 hours at 37° C. and 5% CO2. The automated cell harvester was used to lyse cells in water and adsorb the DNA onto glass-fiber filters in the format of microtiter plate. The DNA incorporated [^3H]-TdR was retained on the filter while unincorporated material passes through. The filters were dried at room temperature overnight, sealed into a sample bag with 10-12 ml of scintillant. The amount of [^3H]-TdR present in each filter (in cpm) was determined by scintillation counting in a Betaplate liquid scintillation counter. The effective dose of immunosuppressant (ED) was calculated using the following equation: ED=(CCPMdrug exposed well/mean CCPMcontrol wells)×100%.

MMK1 protein kinase = MMK1 protein kinase (Vicia faba, UniProt A0AAV1B7B8); experiment: MMK1 protein kinase activity; format: biochemical
Protocol: Protein extraction and purification of pant CDK by binding to p13^suc1-beads or immunopurification with an antibody specific to the cdc2a-MS protein was carried out as described previously (Bögre et al. 1997, Plant Physiol. 113, 1997, 841-852). The MMK1 protein kinase was purified with a specific antibody from Vicia faba extracts as described by Bögre et al. 1997a, Plant Cell 9, 75-83). Protein kinase activity was measures as described above in Example 20. The quantification of radioactivity incorporated into histone H1 or myelin basic protein was undertaken using phosphoimager (FIG. 2).

Chain of MMK1 protein kinase (A0AAV1B7B8 1-394): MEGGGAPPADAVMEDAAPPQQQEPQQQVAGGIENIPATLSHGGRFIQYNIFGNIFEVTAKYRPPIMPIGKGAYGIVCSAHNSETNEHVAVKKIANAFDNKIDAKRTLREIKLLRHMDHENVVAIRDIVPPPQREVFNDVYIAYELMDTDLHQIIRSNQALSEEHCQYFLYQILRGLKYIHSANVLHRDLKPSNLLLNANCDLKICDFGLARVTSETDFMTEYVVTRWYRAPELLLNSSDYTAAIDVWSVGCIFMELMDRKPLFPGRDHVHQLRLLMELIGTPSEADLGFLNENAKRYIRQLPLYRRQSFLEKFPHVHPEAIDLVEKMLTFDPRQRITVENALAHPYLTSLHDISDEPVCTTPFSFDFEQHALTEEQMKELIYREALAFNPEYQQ

Row | SMILES | IC50 (MMK1 protein kinase) [µM] | GI50 [1] [µM] | GI50 (B16) [µM] | EC50 (normal human lymphocytes) [µM]
1 | Cc1n[nH]c2c(NCc3ccccc3)nc(NC3CCCCC3N)nc12 (stereo not shown) | 0.9 | 2.3 | 3.2 | 1.2
2 | CC(=O)Oc1ccccc1CNc1nc(NCCO)nc2c(C)n[nH]c12 | 3.3 | 14.5 | 16.2 | –
3 | CC(=O)c1ccccc1CNc1nc(NCCO)nc2c(C)n[nH]c12 | 0.4 | 10.8 | 9.3 | –
4 | COc1cccc(CNc2nc(NCCO)nc3c(C)n[nH]c23)c1O | 0.45 | 3.5 | 4.2 | –
5 | Cc1cccc(CNc2nc(NCCO)nc3c(C)n[nH]c23)c1O | 0.34 | 2.8 | 3.1 | –
6 | Cc1n[nH]c2c(NCc3ccccc3O)nc(NCCO)nc12 | 0.41 | 5.6 | 8.2 | –
7 | Cc1n[nH]c2c(NCc3ccc(Cl)c(N)c3N)nc(NCCO)nc12 | 2.8 | 5.6 | 6.5 | –
8 | COc1ccc(CNc2nc(NCCO)nc3c(C)n[nH]c23)c(O)c1O | 0.29 | 3.5 | 4.2 | –
9 | Cc1n[nH]c2c(NCc3cc(O)c(Cl)cc3O)nc(NCCO)nc12 | 0.38 | 1.5 | 2.8 | –
10 | COc1cc(O)c(CNc2nc(NCCO)nc3c(C)n[nH]c23)cc1O | 0.16 | 4.2 | 3.7 | –
11 | COc1cc(O)c(CNc2nc(NCCO)nc3c(C)n[nH]c23)c(O)c1 | 0.09 | 2.8 | 4.7 | –
12 | CC(=O)Oc1cccc(CNc2nc(NCCO)nc3c(C)n[nH]c23)c1 | 3.4 | 15.4 | 16.7 | –
13 | Cc1n[nH]c2c(N(C)Cc3ccc(O)c(O)c3)nc(NCCO)nc12 | 1.95 | 10.3 | 11.5 | –

Now from value to molecule, other results behind:

Row | IC50 (MMK1 protein kinase) [µM] | SMILES | GI50 [1] [µM] | GI50 (B16) [µM] | EC50 (normal human lymphocytes) [µM]
14 | 0.012 | CC(C)c1n[nH]c2c(Nc3cccc(Cl)c3)nc(NC3CCCCC3N)nc12 (stereo not shown) | 14 | 28 | 0.2
15 | 0.25 | CC(C)c1n[nH]c2c(Nc3cccc(Cl)c3)nc(NCCN)nc12 | 16 | 22 | 6.7
16 | 0.86 | Cc1n[nH]c2c(NCc3c(N)cccc3Cl)nc(NCCO)nc12 | 5.8 | 7.2 | –
17 | 0.38 | Cc1n[nH]c2c(NCc3cccc(Cl)c3O)nc(NCCO)nc12 | 1.5 | 2.1 | –
18 | 0.9 | CC(=O)c1cccc(CNc2nc(NCCO)nc3c(C)n[nH]c23)c1 | 13.5 | 14.2 | –
19 | 0.24 | Cc1n[nH]c2c(Nc3ccc(Cl)c(N)c3)nc(NCCO)nc12 | 5.7 | 6.4 | –
20 | 1.8 | Cc1n[nH]c2c(NCc3ccc(Cl)c(N)c3)nc(NCCO)nc12 | 12.4 | 13.5 | –
21 | 0.25 | Cc1n[nH]c2c(Nc3ccc(N)c(Cl)c3)nc(NCCO)nc12 | 16.2 | 17.5 | –
22 | 0.84 | Cc1n[nH]c2c(NCc3cccc(O)c3)nc(NCCO)nc12 | 9.4 | 10.2 | –
23 | 0.15 | Cc1n[nH]c2c(Nc3ccc(Br)cc3)nc(NCCO)nc12 | 8.5 | 8.6 | –
24 | 0.18 | Cc1n[nH]c2c(Nc3ccc(Cl)cc3)nc(NCCO)nc12 | 7.6 | 8.4 | –
25 | 2.3 | CC(C)c1n[nH]c2c(NCc3ccccc3)nc(NCCO)nc12 | 25 | 37 | 27
